Data from article PMC7249060, “The Antiproliferative Effects of Flavonoid MAO Inhibitors on Prostate Cancer Cells” (Molecules, 2020).

Legend:
LNCaP cells [1] = test: Antiproliferation dose-response assay for 72 h; assay type: cell-based; conditions: Homo sapiens, mean ± SEM of two experiments, read-out: antiproliferative IC50
Procedure: (§1) For the top effective KKRs, along with TAX, their potency to reduce the affected PCa cell line growth in a dose-dependent manner was determined using the resazurin fluorescence assay. We followed the same protocols and materials used for the antiproliferation screen assays (Section 4.3.2), with the following modifications. The maximum final KKR concentration used was 40 μM. The concentration of 8X of each KKR working solution in 1% HEPES 7.4 was serially diluted in a 3:1 ratio, compound to buffer, respectively. Each data set was collected from ten data points of 3.7–40 μM range. The control had the KKR substituted with buffer. The related IC50 averages were analyzed for the compounds that affected the cell lines the most.

PC3 cells [2] = test: Antiproliferation dose-response assay for 72 h; assay type: cell-based; conditions: Homo sapiens, PC-3; PC3, 72 h, mean ± SEM of two experiments; read-out: antiproliferative IC50
Procedure: as §1

DU145 cells [3] = test: Antiproliferation dose-response assay for 72 h; assay type: cell-based; conditions: Homo sapiens, DU-145; DU145, 72 h, mean ± SEM of two experiments; read-out: antiproliferative IC50
Procedure: as §1

hMAO-A = target: T1, hMAO-A (Homo sapiens, UniProt P21397); test: MAO-Glow luminescence screen of KKRs at 100 μM; assay type: biochemical; conditions: 100 μM screen
T1 construct: purchased Sigma-Aldrich Co. (St. Louis, MO, USA)
T1 sequence (P21397 1-527): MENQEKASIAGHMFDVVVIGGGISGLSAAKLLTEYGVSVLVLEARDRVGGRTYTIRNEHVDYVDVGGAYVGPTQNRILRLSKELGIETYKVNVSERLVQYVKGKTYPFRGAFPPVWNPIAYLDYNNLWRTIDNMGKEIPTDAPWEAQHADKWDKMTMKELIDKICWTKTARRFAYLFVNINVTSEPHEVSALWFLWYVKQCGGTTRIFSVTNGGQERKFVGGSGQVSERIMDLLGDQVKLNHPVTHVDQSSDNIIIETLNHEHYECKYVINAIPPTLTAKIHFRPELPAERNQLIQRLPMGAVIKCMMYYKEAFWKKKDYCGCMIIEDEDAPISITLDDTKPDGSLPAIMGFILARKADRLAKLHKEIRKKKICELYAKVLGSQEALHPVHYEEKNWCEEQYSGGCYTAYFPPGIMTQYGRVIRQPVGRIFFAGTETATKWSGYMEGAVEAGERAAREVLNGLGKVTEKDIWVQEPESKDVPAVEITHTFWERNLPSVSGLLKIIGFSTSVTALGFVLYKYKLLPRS
Procedure: (§2) We optimized our control hMAO-A and hMAO-B isozymes reactions in the incubation condition, at 37 °C for 1 h, by performing a luminescence assay using the MAO-Glow™ kit. Upon arrival, each isozyme was diluted with 10 mM HEPES in cold HBSS of pH 7.4. Afterward, the diluted isozymes were kept at −80 °C until use. Enzyme concentration optimization was accomplished by testing ten 2X serially diluted hMAO-A and hMAO-B concentrations for a final range of 7.00–0.01 U/mL each. The tested isozymes were incubated with LDS of 40 and 4 μM for isozymes A and B, respectively (recommended by Promega protocol), and a maximum of used DMSO of 1% final concentration. Different isozyme concentrations reactions at their initial velocities were monitored. Consequently, their required concentrations were defined to be 0.44 U/mL each. Additionally, ten different LDS concentrations, ranging from 0.3–150 μM, were monitored for optimizing and validating the linearity of the initial reaction for the hMAO-A mode of action. Subsequently, we chose a saturated substrate of 75 μM as a required concentration for the hMAO-A enzyme kinetic reactions.
(§3) The inhibitory effects of the synthesized KKRs of hMAO-A and B were tested by measuring the decrease in arbitrary light units (ALU) signal produced by the optimized isozymes using the MAO-Glow™ Assay at 37 °C. In this assay, DMSO stock for each KKR compound was diluted with a reaction buffer of pH 7.4 to make a 4X working solution for a maximum final concentration of 100 μM and ≤1% DMSO. The experiments were run in the absence and presence of 4X the miscellaneous standards of MAO-BIs (DEP, PARG, and SAF) and MAO-AIs (PIRL and CLORG), with similar concentrations. In white opaque 96-well microplates, 12.5 μL of each compound was plated at RT and was followed by 25 μL of 2X cold hMAO-A or hMAO-B, for a final concentration of 0.44 U/mL. A related buffer substituted each isozyme to make the blank wells and substituted each compound to make the negative control wells. Following this, we added 12.5 μL of 4X LDS to make a final substrate concentration of 40- and 4-μM for hMAO-A and hMAO-B, respectively. All screen plates were incubated at 37 °C for 60 min. The plates of 50 μL/well were then taken out from the incubator, and their reactions were stopped by an equal volume of 50 μL of reporter luciferin detection reagent (RLDR). After 30 min, the luminescence signals for all plates were read on a Synergy HTX Multi-reader from Bio-Tek (Winooski, VT, USA).

hMAO-B = target: T2, hMAO-B (Homo sapiens, UniProt P27338); test: MAO-Glow luminescence screen of KKRs at 100 μM; assay type: biochemical; conditions: 100 μM screen
T2 construct: purchased Sigma-Aldrich Co. (St. Louis, MO, USA)
T2 sequence (P27338 1-520): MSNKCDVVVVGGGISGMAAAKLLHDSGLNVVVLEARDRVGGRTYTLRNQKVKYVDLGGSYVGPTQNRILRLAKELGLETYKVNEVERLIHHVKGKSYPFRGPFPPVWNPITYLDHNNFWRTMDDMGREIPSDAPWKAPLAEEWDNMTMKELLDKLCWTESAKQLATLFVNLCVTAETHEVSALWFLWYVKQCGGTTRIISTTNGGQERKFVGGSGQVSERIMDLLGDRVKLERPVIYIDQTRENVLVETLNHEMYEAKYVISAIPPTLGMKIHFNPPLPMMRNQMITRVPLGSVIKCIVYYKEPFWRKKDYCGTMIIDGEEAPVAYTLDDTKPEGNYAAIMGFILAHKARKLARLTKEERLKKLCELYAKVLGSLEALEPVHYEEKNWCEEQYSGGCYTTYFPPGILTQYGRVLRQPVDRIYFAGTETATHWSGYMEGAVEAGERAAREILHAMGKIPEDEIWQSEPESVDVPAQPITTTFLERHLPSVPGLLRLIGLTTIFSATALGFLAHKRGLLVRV
Procedure: as §2, §3

LNCaP cells [4] = test: Viability screen assay, resazurin, 24 h; assay type: cell-based, human; conditions: 50 μM, 90% viability as margin of cytotoxicity
Procedure: We examined the cytotoxic effects of all 20 synthesized KKRs on the three human PCa cell lines LNCaP, DU145, and PC3, after a 24 h exposure period. Non-toxic TAX was used for comparison. Briefly, cultured cells were seeded in black transparent bottom 96-well microplates at 50,000 cells/175-µL/well in experimental media (RPMI1640 for LNCaP, EMEM for DU145, and DMEM/F12K for PC3), supplied with 5% FBS and 1% P/S. Wells of media without cells were considered blanks and negative controls. The plates were incubated overnight at 37 °C in 5% CO2 to allow cell attachment. For each compound, a working solution of 8X KKR in sterile […] HEPES in HBSS pH buffer of 7.4 was prepared for a final concentration of 50 μM each. The three attached cell types were treated immediately with the related buffer being added to the control wells. A sterile fluorescence-based solution of the resazurin reagent of 0.5 mg/mL in HBSS was prepared. After 24 h, the cells were exposed to 15% v/v of the sterile resazurin reagent, and the plates were re-incubated for 4.5 h to allow redox reaction. All plates were read under 530/590-nm excitation/emission wavelengths using Bio-Tek Synergy HTX Multi-reader as a microplate fluorescence reader.

LNCaP cells [5] = test: Antiproliferation screen assay, resazurin, 72 h; assay type: cell-based, human; conditions: 50 μM
Procedure: (§4) In this screen, we examined the growth inhibitory effects of all synthesized KKRs on the three human PCa cell lines LNCaP, DU145, and PC3. The antiproliferative clinical drug TAX of 0.25 μM was used as a positive control. Additionally, different standards of MAO-Is and FLUT were tested for their effect on the LNCaP cells. Briefly, the procedures and materials used were the same as for the viability assay except for the following—cultured cells were seeded at 10,000 cells/175-µL/well related experimental media, and the resazurin solution was added after 72 h of incubation with the compounds of 50 μM each.

PC3 cells [6] = test: Antiproliferation screen assay, resazurin, 72 h; assay type: cell-based, human; conditions: 50 μM
Procedure: as §4

DU145 cells [7] = test: Antiproliferation screen assay, resazurin, 72 h; assay type: cell-based, human; conditions: 50 μM
Procedure: as §4

COc1cc(O)c(C(=O)/C=C/c2cc(OC)c(OC)c(OC)c2)c(OC)c1 [KKR17, (E)-1-(2-hydroxy-4,6-dimethoxyphenyl)-3-(3,4,5-trimethoxyphenyl)prop-2-en-1-one]
IC50 (LNCaP cells [1]): 21 ± 1 µM
IC50 (PC3 cells [2]): 34 ± 1 µM
IC50 (DU145 cells [3]): 9 ± 0.5 µM
MAO inhibitory property in MAO screen (hMAO-A): did not have MAO inhibitory properties
MAO inhibitory property in MAO screen (hMAO-B): did not have MAO inhibitory properties
cytotoxicity / cell viability (LNCaP cells [4]): affected the LNCaP cells
antiproliferative effect in screen (LNCaP cells [5]): top five KKRs that kept standing out with antiproliferative effects
antiproliferative effect in screen (PC3 cells [6]): effective against all investigated cell lines, including the metastatic PC3
antiproliferative effect in screen (DU145 cells [7]): top effective
